Laboratory results from ChEMBL document CHEMBL5550185, “Targeting hTERT Promoter G-Quadruplex DNA Structures with Small-Molecule Ligand to Downregulate hTERT Expression for Triple-Negative Breast Cancer Therapy” (J Med Chem, 2024).
Calls of active or inactive are those of the source. No cut-off for these calls is given here.

Tests used:
Quadruplex DNA [1] = experiment: Binding affinity to CKIT-2 G4 DNA (unknown origin) assessed as thermal stability by measuring change in melting temperature at 400 uM […]; type: nucleic-acid assay
Quadruplex DNA [2] = experiment: Binding affinity to CKIT-2 G4 DNA (unknown origin) assessed as dissociation constant by ITC analysis; type: nucleic-acid assay
Quadruplex DNA [3] = experiment: Binding affinity to CKIT-2 G4 DNA (unknown origin) assessed as change in enthalpy at 400 uM by ITC analysis; type: nucleic-acid assay
Quadruplex DNA [4] = experiment: Binding affinity to Bcl-2 G4 DNA (unknown origin) assessed as change in enthalpy at 400 uM by ITC analysis; type: nucleic-acid assay
Homo sapiens = species: Homo sapiens; experiment: Binding affinity to antisense i-hTERT DNA assessed as thermal stability by measuring change in melting temperature at 400 uM […]
[5] = Selectivity ratio of binding affinity to human TERT G4 DNA to binding affinity to Bcl-2 G4 DNA (unknown origin)
[6] = Selectivity ratio of binding affinity to human TERT G4 DNA to binding affinity to Ckit-2 G4 DNA (unknown origin)
MDA-MB-231 [7] = experiment: Cytotoxicity against telomerase-positive human MDA-MB-231 cells assessed as inhibition of cell growth incubated for 48 hrs by MTT assay; type: functional, cell-based; details: MDA-MB-231, 48 h
[8] = Cytotoxicity against HUVEC cells assessed as inhibition of cell growth incubated for 48 hrs by MTT assay; type: toxicity, cell-based; details: human
MDA-MB-231 [9] = experiment: Downregulation of CTCF mRNA expression in human MDA-MB-231 cells at 0 to 1.5 uM measured after 48 hrs by qRT-PCR analysis; type: functional, cell-based; details: dose 0-1.5 µM
MDA-MB-231 [10] = experiment: Inhibition of hTERT protein expression in human MDA-MB-231 cells measured after 48 hrs by Western blot analysis; type: functional, cell-based; details: dose 0-1.5 µM
MDA-MB-231 [11] = experiment: Inhibition of TRF2 protein expression in human MDA-MB-231 cells measured after 48 hrs by Western blot analysis; type: functional, cell-based; details: dose 0-1.5 µM
[12] = target: Telomerase reverse transcriptase (Homo sapiens) (UniProt O14746); experiment: Inhibition of telomerase activity in human MDA-MB-231 cells at >=1 uM incubated for 30 mins by SYBR Gold staining based TRAP assay; type: cell-based
MDA-MB-231 [13] = experiment: Induction of DNA damage in human MDA-MB-231 cells assessed as upregulation of 53BP1 protein expression measured after 48 hrs by Western blot analysis; type: functional, cell-based; details: dose 0-1.5 µM
MDA-MB-231 [14] = experiment: Induction of DNA damage in human MDA-MB-231 cells assessed as upregulation of gamma-H2AX protein expression measured after 48 hrs by Western blot analysis; type: functional, cell-based; details: dose 0-1.5 µM
MDA-MB-231 [15] = experiment: Disruption of energy metabolism in human MDA-MB-231 cells assessed as reduction in cellular energy production by measuring reduction in oxygen consumption rate at 1.5 uM measured after 2 hrs by Seahorse XF24 analyzer; type: functional, cell-based
MDA-MB-231 [16] = experiment: Disruption of energy metabolism in human MDA-MB-231 cells assessed as increase in ECAR at 0 to 1.5 uM measured after 2 hrs by Seahorse XF24 analyzer; type: functional, cell-based; details: dose 0-1.5 µM
MDA-MB-231 [17] = experiment: Induction of autophagy in human MDA-MB-231 cells assessed as upregulation of BNIP3L/Nix protein expression at 0 to 1.5 uM measured after 48 hrs by Western blot analysis; type: functional, cell-based; details: dose 0-1.5 µM
MDA-MB-231 [18] = experiment: Downregulation of LC3-I protein expression in human MDA-MB-231 cells at 0 to 1.5 uM measured after 48 hrs by Western blot analysis; type: functional, cell-based; details: dose 0-1.5 µM
[19] = Upregulation of HLA-C gene expression in human MDA-MB-231 cells assessed as fold change at 1 uM measured after 48 hrs by RNA-seq analysis relative to control; type: functional
[20] = Upregulation of RRAS gene expression in human MDA-MB-231 cells assessed as fold change at 1 uM measured after 48 hrs by RNA-seq analysis relative to control; type: functional
[21] = Upregulation of FTH1 gene expression in human MDA-MB-231 cells assessed as fold change at 1 uM measured after 48 hrs by RNA-seq analysis relative to control; type: functional
[22] = Upregulation of HMOX1 gene expression in human MDA-MB-231 cells assessed as fold change at 1 uM measured after 48 hrs by RNA-seq analysis relative to control; type: functional
[23] = Toxicity in female Balb/c nude mouse xenografted with human MDA-MB-231 cells assessed as reduction in body weight at 2 to 5 mg/kg, iv administered via tail vein every 2 days for 16 days; type: organism-based; details: in vivo, 384 h, dose 2-5 mg/kg, time 16 day
[24] = Toxicity in female Balb/c nude mouse xenografted with human MDA-MB-231 cells assessed as signs of skin tear at 2 to 5 mg/kg, iv administered via tail vein every 2 days for 16 days; type: organism-based; details: in vivo, 384 h, dose 2-5 mg/kg, time 16 day
[25] = Toxicity in female Balb/c nude mouse xenografted with human MDA-MB-231 cells assessed as signs of ulcer at 2 to 5 mg/kg, iv administered via tail vein every 2 days for 16 days; type: organism-based; details: in vivo, 384 h, dose 2-5 mg/kg, time 16 day
MDA-MB-231 [26] = experiment: Antitumor activity against human MDA-MB-231 cells xenografted in female Balb/c mouse assessed as reduction in tumor weight at 5 mg/kg, iv administered via tail vein every 2 days for 16 days relative to control; type: functional; parameters: scale not given: the % may be the effect or the level left; details: time 16 day
[27] = Toxicity in female Balb/c nude mouse xenografted with human MDA-MB-231 cells assessed as change in blood urea nitrogen level at 2 to 5 mg/kg, iv administered via tail vein every 2 days for 16 days; type: organism-based; details: in vivo, 384 h, dose 2-5 mg/kg, time 16 day
[28] = Toxicity in female Balb/c nude mouse xenografted with human MDA-MB-231 cells assessed as change in platelet count at 2 to 5 mg/kg, iv administered via tail vein every 2 days for 16 days; type: organism-based; details: in vivo, 384 h, dose 2-5 mg/kg, time 16 day
[29] = Toxicity in female Balb/c nude mouse xenografted with human MDA-MB-231 cells assessed as pathological changes in heart at 2 to 5 mg/kg, iv administered via tail vein every 2 days for 16 days by H and E staining based analysis; type: organism-based; details: in vivo, 384 h, dose 2-5 mg/kg, time 16 day
[30] = Toxicity in female Balb/c nude mouse xenografted with human MDA-MB-231 cells assessed as pathological changes in spleen at 2 to 5 mg/kg, iv administered via tail vein every 2 days for 16 days by H and E staining based analysis; type: organism-based; details: in vivo, 384 h, dose 2-5 mg/kg, time 16 day
[31] = Toxicity in female Balb/c nude mouse xenografted with human MDA-MB-231 cells assessed as pathological changes in lung at 2 to 5 mg/kg, iv administered via tail vein every 2 days for 16 days by H and E staining based analysis; type: organism-based; details: in vivo, 384 h, dose 2-5 mg/kg, time 16 day

Telomerase reverse transcriptase (Homo sapiens), sequence (O14746 whole entry): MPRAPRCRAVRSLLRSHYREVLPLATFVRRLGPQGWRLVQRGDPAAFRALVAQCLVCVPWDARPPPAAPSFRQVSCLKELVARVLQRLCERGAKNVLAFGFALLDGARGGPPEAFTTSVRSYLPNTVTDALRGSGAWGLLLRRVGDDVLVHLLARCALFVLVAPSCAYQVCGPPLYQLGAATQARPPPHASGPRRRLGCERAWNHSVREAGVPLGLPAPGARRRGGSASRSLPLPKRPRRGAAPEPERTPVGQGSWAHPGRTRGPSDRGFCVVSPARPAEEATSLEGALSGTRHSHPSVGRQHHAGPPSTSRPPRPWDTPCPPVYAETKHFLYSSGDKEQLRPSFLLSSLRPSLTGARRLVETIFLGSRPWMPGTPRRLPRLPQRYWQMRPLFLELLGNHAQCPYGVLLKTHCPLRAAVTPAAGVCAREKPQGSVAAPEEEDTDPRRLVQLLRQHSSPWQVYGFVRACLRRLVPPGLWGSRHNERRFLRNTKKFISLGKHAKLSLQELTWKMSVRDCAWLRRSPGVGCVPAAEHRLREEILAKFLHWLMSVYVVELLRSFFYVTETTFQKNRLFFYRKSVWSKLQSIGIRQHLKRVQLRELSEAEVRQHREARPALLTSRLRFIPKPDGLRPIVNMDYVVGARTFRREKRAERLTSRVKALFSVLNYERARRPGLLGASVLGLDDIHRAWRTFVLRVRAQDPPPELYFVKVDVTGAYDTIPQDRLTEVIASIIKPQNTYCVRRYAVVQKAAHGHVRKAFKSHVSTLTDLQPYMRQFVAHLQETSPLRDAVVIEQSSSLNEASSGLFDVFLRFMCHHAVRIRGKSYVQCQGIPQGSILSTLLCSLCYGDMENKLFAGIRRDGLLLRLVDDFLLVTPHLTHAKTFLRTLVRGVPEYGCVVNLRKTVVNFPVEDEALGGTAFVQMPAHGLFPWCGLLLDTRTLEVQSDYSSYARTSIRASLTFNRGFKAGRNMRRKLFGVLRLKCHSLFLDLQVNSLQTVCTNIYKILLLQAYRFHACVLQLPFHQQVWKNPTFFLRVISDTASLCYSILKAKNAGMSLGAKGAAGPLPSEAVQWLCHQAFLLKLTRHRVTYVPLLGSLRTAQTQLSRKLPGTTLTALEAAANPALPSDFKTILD

C[n+]1c(/C=C/c2c[nH]c3ccccc23)cc(/C=C2\Sc3ccccc3N2CCCN2CCC(C(F)(F)F)CC2)c2ccccc21.[I-]
ΔTm (Quadruplex DNA [1]): 2.45 °C | Kd (Quadruplex DNA [2]): 6.8 µM | deltaH (Quadruplex DNA [3]): -1.59 kcal/mol | deltaH (Quadruplex DNA [4]): -2.34 kcal/mol | ΔTm (Homo sapiens): 8.82 °C | Selectivity ratio [5]: 2 | Selectivity ratio [6]: 2 | IC50 (MDA-MB-231 [7]): 1 µM | IC50 at 48 h [8]: 8.7 µM | Activity (MDA-MB-231 [9]): inactive | inhibition (MDA-MB-231 [10]): Dose-Dependent Effect | inhibition (MDA-MB-231 [11]): Dose-Dependent Effect | inhibition [12]: Active | Activity (MDA-MB-231 [13]): Dose-Dependent Effect | Activity (MDA-MB-231 [14]): Dose-Dependent Effect | Activity (MDA-MB-231 [15]): Active | Activity (MDA-MB-231 [16]): Active | Activity (MDA-MB-231 [17]): Active | Activity (MDA-MB-231 [18]): Active | fold change (FC) [19]: >2 | fold change (FC) [20]: >2 | fold change (FC) [21]: >2 | fold change (FC) [22]: >2 | Activity [23]: Non-Toxic | Activity [24]: Non-Toxic | Activity [25]: Non-Toxic | Activity (MDA-MB-231 [26]): 78.7% | Activity [27]: Non-Toxic | Activity [28]: Non-Toxic | Activity [29]: Non-Toxic | Activity [30]: Non-Toxic | Activity [31]: Non-Toxic
